# Reference: patent US20250360101A1, “OSTEOCLAST DIFFERENTIATION INHIBITOR CONTAINING UROLITHIN” (DAICEL CORPORATION, priority 2020, published 2025)
# Experiments:
# [1] = system: mouse bone marrow-derived hematopoietic stem cells; assay: Osteoclast differentiation inhibition test (M-CSF/RANKL induction, TRAP staining) from hematopoietic stem cells; assay type: cell-based; conditions: for number of osteoclasts (relative value): 8 days culture, ratio of TRAP-stained area to sample-free group (Comparative Example = 100%); for Osteoclast differentiation (significance vs Comparative Example): Tukey's test, P not more than 0.1%
# Experimental: (§1) In the present Examples, statistical analysis was carried out using commercially available software (StatMate3, ATMS). Except for Example 3 and Comparative Example 3, Tukey's test was used for comparison in terms of the action and effect. In all tests, a significant difference was assumed at a P value of not more than 0.1%. In Example 3 and Comparative Example 3, Dunnett's test was used for comparison in terms of the action and effect. A significant difference was assumed at a P-value of not more than 1%.
# Mouse femurs and tibias were removed, and a portion of about 2 mm was removed from each bone end by cutting. The long bones were placed in a 0.2-mL microtube, and centrifuged at 2000×g, followed by collecting bone marrow fluid. After suspending the bone marrow fluid in 4 ml of α-MEM medium (#. 11900-016, Gibco) supplemented with 10% FBS (JBS-011115), the resulting suspension was plated on a 6-cm dish. After incubating the plate at 37° C. under 5% CO2 for 24 hours, the medium was collected. The floating cells in the medium were isolated as hematopoietic stem cells.
# The isolated mouse bone marrow-derived hematopoietic stem cells were plated on a 96-well plate at 4.0×10^4 cells/well. At the same time as the plating, 30 ng/ML M-CSF (macrophage-colony stimulating factor, R&D Systems) and 50 ng/mL RANKL (receptor activator of nuclear factor κ-B ligand, PeproTech Inc.) as inducers of differentiation into osteoclasts were added to all wells. Together with the differentiation inducers, urolithin A (1, 10, or 25 μM) was added. Culture was carried out by leaving the plate to stand in an incubator at 37° C. under 5% CO2 for 8 days. The medium in each well was removed, and the cells were fixed by being left to stand in […] Mildform for 10 minutes, followed by three times of washing with pure water. Thereafter, 50 μL of TRAP staining solution (SIGMA) was added to each well, and the plate was incubated in a shaded state for 1 hour at 37° C. The TRAP staining solution in each well was discarded, and the well was washed with pure water, followed by adding 50 μL of Mayer's hematoxylin solution thereto. The plated was left to stand for 2 minutes to perform nuclear staining. The plate was washed 10 times with pure water, and then dried for one or more days. The total number of multinucleated osteoclasts having three or more nuclei present on each well was counted. The stained image was scanned using a scanner (EPSON, GT-X970, 800 pixels/inch), and the stained area was measured using image analysis software Image J.
# The same operation as in Example 1 was carried out except that urolithin A was not added.
# The ratio of the stained area in each sample-addition group (Example 1) to the stained area in the sample-free group (Comparative Example 1) was calculated to determine the number of osteoclasts (relative value). […] The conditions marked with “*” in Table 2 and FIG. 1 are the conditions under which the significant differences were found compared to Comparative Example 1.
# The same operation as in Example 1 was carried out except that urolithin B was used instead of urolithin A, and that urolithin B was added at 25 or 50 μM.
# The same operation as in Example 1 was carried out except that urolithin B was not added.
# The ratio of the stained area in each sample-addition group (Example 2) to the stained area in the sample-free group (Comparative Example 2) was calculated to determine the number of osteoclasts (relative value). […] The condition marked with “*” in Table 3 and FIG. 2 is the condition under which the significant difference was found compared to Comparative Example 2.
# [2] = system: macrophages prepared by differentiation from the isolated mouse bone marrow-derived hematopoietic stem cells; assay: Osteoclast differentiation inhibition test (M-CSF/RANKL induction, TRAP staining) from macrophages; assay type: cell-based; conditions: 10 μM; 3 days culture; ratio of TRAP-stained area to sample-free group (Comparative Example 3 = 100%)
# Experimental: as §1
# Mouse femurs and tibias were removed, and a portion of about 2 mm was removed from each bone end by cutting. The long bones were placed in a 0.2-mL microtube, and centrifuged at 2000×g, followed by collecting bone marrow fluid. […]
# The macrophages prepared by differentiation from the isolated mouse bone marrow-derived hematopoietic stem cells were plated on a 96-well plate at 4.0×10^4 cells/well. […] The total number of multinucleated osteoclasts having three or more nuclei present on each well was counted. The stained image was scanned using a scanner (EPSON, GT-X970, 800 pixels/inch), and the stained area was measured using image analysis software Image J. […]
# The ratio of the stained area in each sample-addition group (Example 3) to the stained area in the sample-free group (Comparative Example 3) was calculated to determine the number of osteoclasts (relative value). […]
smiles,measurement,setting,value
O=c1oc2cc(O)ccc2c2ccc(O)cc12 [Urolithin A],number of osteoclasts (relative value),[1]; 1 μM,88% ± 9%
same,number of osteoclasts (relative value),[1]; 10 μM,49% ± 6% (*)
same,Osteoclast differentiation (significance vs Comparative Example),[1]; 10 μM,significantly inhibited
same,number of osteoclasts (relative value),[1]; 25 μM,26% ± 4% (*)
same,Osteoclast differentiation (significance vs Comparative Example),[1]; 25 μM,significantly inhibited
same,number of osteoclasts (relative value),[2],50% ± 5% (*)
O=c1oc2cc(O)ccc2c2ccccc12 [Urolithin B],number of osteoclasts (relative value),[1]; 25 μM,87% ± 13%
same,number of osteoclasts (relative value),[1]; 50 μM,40% ± 5% (*)
